The record followed here is patent US4714705A, “4-nitrogen substituted isoquinolinol compounds having cardiotonic, phosphodiesterase fraction III inhibiting properties and/or renal vasodilating properties” (Ortho Pharmaceutical Corporation, priority 1986, dated 1987).

The structures appear in SMILES notation. Read-outs that look alike come from different tables or passages of the source.

The subject of assay [1] is adult mongrel dogs. Description: Acute in vivo cardiotonic activity in anesthetized dogs. The arrangement: species or system dog (adult mongrel). As to conditions: Canis lupus familiaris, relative to controls; for change in vivo at 1.875 mg/kg: 1.875 mg/kg intravenous; for change in vivo at 8.75 mg/kg: 8.75 mg/kg intravenous. The method, then: The acute in vivo cardiotonic activity of compounds prepared according to the present invention was determined according to a modification of the procedure described by Alousi et al., Circ. Res., 45, 666 (1979).
In particular, adult mongrel dogs were anesthetized with sodium pentobarbital and were artificially respired. Arterial pressure was monitored via a femoral artery, and the pulse pressure was used to trigger a cardiotachometer for heart rate. Left ventricular pressure was determined with a Millar catheter, and dP/dt (the change in ventricular pressure with time) was derived. Cardiac output was determined by measuring ascending aortic blood flow with an electromagnetic flow probe, and myocardial contractile force was measured with a Walton Brodie strain gauge sutured to the right ventricle. Lead II EKG was also recorded.
A standard dose (10 μ/kg/min) of dopamine was administered to assess myocardial responsiveness.
Compounds of the invention were administered by intravenous infusion or bolus oral administration, and the effects on cardiovascular parameters were determined.
Dose related effects on the test compound on blood pressure (BP), heart rate (HR), maximum change in left ventricular pressure with time (dP/dt max), % change in cardiac force (CF) and the increase in mean arterial blood pressure relative to controls (MABP) were compared to pretreatment control values, expressed as a % change and rated for activity. Statistical evaluations were made using the appropriate parametric test against controls.

In assay [2] the test system is adult mongrel dogs. The experiment in a line: Renal vasodilating activity in anesthetized dogs. Type of assay: in vivo, dog (adult mongrel). The following applies: Canis lupus familiaris, relative to controls; for change in vivo at 6.2 mg/kg: 6.2 mg/kg intravenous; for change in vivo at 1.2 mg/kg: 1.2 mg/kg intravenous. Here is the method: Goldberg et al, J. Pharmacol. Exp. Ther., 163, 188 (1968), performed an investigation of the structural requirements for dopamine-like renal vasodilation of phenethylamines and apmorphine. The following procedure is a variation of the assay described in that report.
Adult mongrel dogs were anesthetized and surgically prepared for electromagnetic measurement of renal artery blood flow. A carotid artery was cannulated for measuring arterial blood pressure, and drugs were administered intravenously or intraarterially (via the renal artery). Heart rate was monitored with a cardiotachometer. Renal vascular resistance was calculated as the ratio of mean arterial blood pressure/renal artery blood flow. Dopamine was infused intravenously at […] for ten minutes (at an infusion rate of about 1 ml/min) to determine responsiveness of each dog to renal dopamine receptor stimulation. Cumulative dose-response data were obtained by infusing a compound of this invention at progressively increasing (usually three-fold) infusion rates, esch dose being infused for five minutes. The maximum percent increase from pre-drug control in renal artery blood flow (or a decrease in renal vascular resistance) was determined for each infusion dose.
RBF values are percent increase in renal blood flow. RVR values are percent increase in renal vascular resistance. MABP and HR are increases in mean arterial blood pressure and heart rate, respectively, relative to controls.

Where [3] appears, read: read-out: CF, percent change in cardiac force.
Where [4] appears, read: read-out: HR, percent change in heart rate.
Setting [5] is: read-out: MABP, mean arterial blood pressure.
[6] abbreviates: read-out: dP/dt, maximum change left ventricular pressure with time.
Setting [7] is: read-out: RBF, renal blood flow.
[8] abbreviates: read-out: RVR, renal vascular resistance.

For `Cc1nc(O)c([N+](=O)[O-])c2cc3c(cc12)OCO3` [Compound BB], the change in vivo at 1.875 mg/kg in the assay with adult mongrel dogs [1] (setting [3]) is 28%; in the assay on adult mongrel dogs [1] (setting [4]) it was -17%; in the assay on adult mongrel dogs [1] (setting [5]), -8%; with adult mongrel dogs [1] (setting [6]), -1%. In addition, the change in vivo at 6.2 mg/kg with adult mongrel dogs [2] (setting [4]) was 90%; in the assay with adult mongrel dogs [2] (setting [5]), -16%; in the assay with adult mongrel dogs [2] (setting [7]) it was 19%; in the assay on adult mongrel dogs [2] (setting [8]), -30%.
Take `O=[N+]([O-])c1c(O)ncc2cc3c(cc12)OCO3` [Compound BC]: the change in vivo at 1.875 mg/kg is 16% with adult mongrel dogs [1] (setting [3]), 0% in the assay on adult mongrel dogs [1] (setting [4]), -7.5% in the assay on adult mongrel dogs [1] (setting [5]) and 22% in the assay with adult mongrel dogs [1] (setting [6]). The change in vivo at 1.2 mg/kg in the assay on adult mongrel dogs [2] (setting [4]) was -6%; with adult mongrel dogs [2] (setting [5]) it was -14%; with adult mongrel dogs [2] (setting [7]) it was 20%; in the assay with adult mongrel dogs [2] (setting [8]), -28%.
With `COc1cc2c(C)nc(O)c(NC(C)=O)c2cc1OC` [Compound BG, 4-Acetamido-3-hydroxy-6,7-dimethoxy-1-methylisoquinoline Hemihydrate], the change in vivo at 8.75 mg/kg in the assay on adult mongrel dogs [1] (setting [3]) was 47%; in the assay with adult mongrel dogs [1] (setting [4]), 5%; in the assay on adult mongrel dogs [1] (setting [5]), -3%; in the assay with adult mongrel dogs [1] (setting [6]) it was 33%. For the same compound, the change in vivo at 6.2 mg/kg is 14% with adult mongrel dogs [2] (setting [4]), 6% in the assay on adult mongrel dogs [2] (setting [5]), 39% in the assay on adult mongrel dogs [2] (setting [7]) and -24% in the assay on adult mongrel dogs [2] (setting [8]).
